Like-named read-outs stand apart in the source and are kept apart here.
What was measured:
salmon (S. salar) [1] = assay: Feeding test with gallic acid in astaxanthin feed, retention of astaxanthin in fish muscle (Example 1); assay type: in vivo, Salmo salar; conditions: for retention of astaxanthin in fish muscle: 5.5 months
Protocol: The test was carried out on salmon (S. salar) over a 5.5-month period between November 11 and May 5. The test was carried out in vessels having a diameter of 1 metre. The vessels were filled with seawater and the water temperature varied between 8 and 12° C. in the period. There were 34-35 fish in each vessel. Mean weight at start was 118 g. The control group consisted of three vessels, while each test group consisted of one vessel.
The feeds had the following main component composition: 43.5% protein; 27.7% fat; 7.8% water and 8.0% ash.
There was produced feed having three different levels of astaxanthin, 15, 30 and 45 mg astaxanthin/kg respectively, both of the control feeds and the test feeds, by that different amounts of Carophyll Pink were added to the meal mixture before extrusion.
Adding gallic acid into the meal mix to the same recipe as the control feeds provided the test feeds. Gallic acid was added in four levels to the test feeds, low, medium, high and very high, respectively. Low level corresponds to an inclusion level of between 10 and 75 ppm, represented in the examples with an inclusion level of 15 ppm, medium level corresponds to an inclusion level of between 76 and 750 ppm, represented in the examples with an inclusion level of 400 ppm, high level corresponds to an inclusion level of between 751 and 1500 ppm, represented in the example with an inclusion level of 1200 ppm, and very high level corresponds to an inclusion level of over 1500 ppm, represented in the example with an inclusion level of 3600 ppm.
At the termination of the test the fish weighed in average 557 g. SGR was between 0.84%/d and 0.89%/d. The fish were filleted and the fillets were analysed for chemical astaxanthin in duplicates of pooled samples of fillets. Astaxanthin was analysed with HPLC according to a method developed by Roche with modifications.

rainbow trout [2] = conditions: rainbow trout fed two months; feed with 80 ppm astaxanthin, alone or with 160 ppm proantocyanidin (0.1% KPA-F); cited from earlier work
rainbow trout [3] = conditions: oral via feed; cited from earlier work
sea bream = conditions: cited from earlier work
salmon (S. salar) [4] = assay: Feeding test with ferulic acid in astaxanthin feed, retention of astaxanthin in fish muscle (Example 2); assay type: in vivo, Salmo salar
Protocol: The test was carried out with salmon (S. salar) from May 4th to August 20th. The test was carried out in vessels having a diameter of 1 metre. The vessels were filled with seawater and the water temperature varied between 8.3 and 11.8° C. in the period. There were 30 fish in each vessel having a mean weight of 0.2 kg at the start. The control group consisted of two vessels per diet, while the test group consisted of one vessel at medium inclusion of ferulic acid and two vessels per diet at low inclusion of ferulic acid.
The feed had the following main component composition: 44.5% protein; 28.2% fat; 7.6% water and 7.2% ash.
The test feed had the same composition as shown in table 2 and had in addition added ferulic acid as dry powder in meal mix before extrusion. Ferulic acid was added at two levels: low and medium, where the levels are defined as in example 1.
Each feed was formulated with two levels of astaxanthin, 20 and 40 mg/kg.
At the termination of the test the fish weighed 0.7 kg as an average. […] The fish were filleted and the fillet analysed for astaxanthin. Thirty fish per vessel were analysed individually with NIR.

SMILES: O=C(O)c1cc(O)c(O)c(O)c1 [gallic acid, 3,4,5-hydroxybenzoic acid]
- retention of astaxanthin versus control (salmon (S. salar) [1]; astaxanthin content in the feeds approx. 40 ppm): little difference in the retention
- retention of astaxanthin in fish muscle (salmon (S. salar) [1]; high inclusion levels of gallic acid in feed (751-1500 ppm, represented by 1200 ppm)): hamper the retention of astaxanthin
- effect on the retention of astaxanthin (salmon (S. salar) [1]; lowest inclusion level of gallic acid (15 ppm) compared with medium level (400 ppm)): equally good effect on the retention of astaxanthin as a medium level
- retention of astaxanthin in fish muscle (salmon (S. salar) [1]; very high level of gallic acid in feed (over 1500 ppm, represented by 3600 ppm)): worse retention than at the other tested levels

SMILES: CC1=C(/C=C/C(C)=C/C=C/C(C)=C/C=C/C=C(C)/C=C/C=C(C)/C=C/C2=C(C)C(=O)C(O)CC2(C)C)C(C)(C)CC(O)C1=O (stereo not drawn) [astaxanthin, 3,3′-dihydroxy β,β-carotene-4,4′-dion]
- chemical content of astaxanthin in the muscle at the end of the experiment (rainbow trout [2]): 6.57 ppm
- share of added astaxanthin in the feed deposited in the fish meat (rainbow trout [3]): up to 15%

SMILES: COc1cc(C=CC(=O)O)ccc1O [ferulic acid, 3-(4-hydroxy-3-metoxyphenol)prop-2-enoic acid]
- increase in the level of astaxanthin in fish skin (sea bream; 1000 ppm ferulic acid): mild increase
- increase in the level of astaxanthin in fish skin (sea bream; only 100 ppm ferulic acid): no increase
- effect on the retention of astaxanthin (salmon (S. salar) [4]; low level of ferulic acid (15 ppm), feed contained less than 20 ppm of astaxanthin): favourable effect on the retention of astaxanthin
- effect on the retention of astaxanthin (salmon (S. salar) [4]; medium level of ferulic acid (400 ppm), feed contained more than 30 ppm of astaxanthin): favourable effect on the retention of astaxanthin

From patent US20120114823A1, “Feed Additive For Improved Pigment Retention” (TROUW INTERNATIONAL B.V., priority 2009, published 2012)
